Experimental data as given in patent US12435060B2, “Acylamino bridged heterocyclic compound, and composition and application thereof” (BEIJING SCITECH-MQ PHARMACEUTICALS LIMITED, priority 2019, dated 2025).

System: HT29 cells
Experiment: Inhibition of cell necrosis (CCK8 method), induced programmed necrosis of HT29 cells
Type: cell-based
Settings: Homo sapiens, HT-29; rescue from necrosis induced by TNF-α 20 ng/mL, AT-406 1 μM, Z-VAD-FMK 20 μM; 16-20 hours; CCK-8, OD 450 nm
Procedure, shortened: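 Rescue from programmed necrosis was scored by CCK-8 absorbance at 450 nm after 16-20 h of TNF-α (20 ng/mL), AT-406 (1 μM) and Z-VAD-FMK (20 μM) at 37 °C, 5% CO2. HT29 cells had received compound 30 min earlier across nine 4-fold dilutions (top 25000 nM final). IC50 came from % inhibition relative to uninduced and induced-only wells.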

Compound	IC50 [nM]
Cc1ccc(OCCCC(C)(C)O)cc1-c1cc(NC(=O)c2nnc(Cc3ccccc3)[nH]2)ncn1 [Example 432, 5-benzyl-N-(6-(5-((4-hydroxy-4-methylpentyl)oxy)-2-methylphenyl)pyrimidin-4-yl)-4H-1,2,4-triazole-3-carboxamide]	≤ 100
CC(C)(O)CCCOc1ccc(F)c(-c2cc(NC(=O)c3nnc(Cc4ccccc4F)[nH]3)ncc2F)c1 [Example 318, N-(5-fluoro-4-(2-fluoro-5-((4-hydroxy-4-methylpentyl)oxy)phenyl)pyridin-2-yl)-5-(2-fluorobenzyl)-4H-1,2,4-triazole-3-carboxamide]	≤ 100
Cc1ccc(OCCCC(C)(C)O)cc1-c1ccnc(NC(=O)c2nnc(Cc3cccc(F)c3F)[nH]2)c1 [Example 202, 5-(2,3-difluorobenzyl)-N-(4-(5-((4-hydroxy-4-methylpentyl)oxy)-2-methylphenyl)pyridin-2-yl)-4H-1,2,4-triazole-3-carboxamide]	≤ 100
COCCCOc1ccc(Cl)c(-c2ccnc(NC(=O)c3nnc(Cc4ccccc4F)[nH]3)c2)c1 [Example 396, 5-(2-fluorobenzyl)-N-(4-(2-chloro-5-(3-methoxypropoxy)phenyl)pyridin-2-yl)-4H-1,2,4-triazole-3-carboxamide]	≤ 100
O=C(Nc1cc(-c2cc(OCCCCCO)ccc2C(F)(F)F)ccn1)c1nnc(Cc2ccccc2F)[nH]1 [Example 276, 5-(2-fluorobenzyl)-N-(4-(5-((5-hydroxypentyl)oxy)-2-(trifluoromethyl)phenyl)pyridin-2-yl)-4H-1,2,4-triazole-3-carboxamide]	≤ 100
CC(C)(O)CCCOc1ccc(Cl)c(-c2ccnc(NC(=O)c3nnc(Cc4cc(Cl)ccc4F)[nH]3)c2)c1 [Example 340, 5-(5-chloro-2-fluorobenzyl)-N-(4-(2-chloro-5-((4-hydroxy-4-methylpentyl)oxy)phenyl)pyridin-2-yl)-4H-1,2,4-triazole-3-carboxamide]	100 to 1000
O=C(Nc1cc(-c2cc(OCC3CCOCC3)ccc2F)ccn1)c1nnc(Cc2ccccc2F)[nH]1 [Example 315, 5-(2-fluorobenzyl)-N-(4-(2-fluoro-5-((tetrahydro-2H-pyran-4-yl)methoxy)phenyl)pyridin-2-yl)-4H-1,2,4-triazole-3-carboxamide]	100 to 1000
Cc1ccc(OCCCC(C)(C)O)cc1-c1ccnc(NC(=O)c2nnc(Cc3cc(F)cc(Cl)c3)[nH]2)c1 [Example 205, 5-(5-chloro-3-fluorobenzyl)-N-(4-(5-((4-hydroxy-4-methylpentyl)oxy)-2-methylphenyl)pyridin-2-yl)-4H-1,2,4-triazole-3-carboxamide]	100 to 1000
CC(C)(C)OCCOc1ccc(Cl)c(-c2ccnc(NC(=O)c3nnc(CC4CCCCC4)[nH]3)c2)c1 [Example 394, N-(4-(5-(2-(tert-butoxy)ethoxy)-2-chlorophenyl)pyridin-2-yl)-5-(cyclohexylmethyl)-4H-1,2,4-triazole-3-carboxamide]	≤ 100
COCCOc1ccc(C(F)(F)F)c(-c2ccnc(NC(=O)c3nnc(CC4CCCCC4)[nH]3)c2)c1 [Example 282, 5-(cyclohexylmethyl)-N-(4-(5-(2-methoxyethoxy)-2-(trifluoromethyl)phenyl)pyridin-2-yl)-4H-1,2,4-triazole-3-carboxamide]	≤ 100
Cc1ccc(OCCC2CCOCC2)cc1-c1cc(NC(=O)c2nnc(CC3CCCCC3)[nH]2)ncc1F [Example 499, N-(5-fluoro-4-(2-methyl-5-(2-(tetrahydro-2H-pyran-4-yl)ethoxy)phenyl)pyridin-2-yl)-5-(cyclohexylmethyl)-4H-1,2,4-triazole-3-carboxamide]	≤ 100
Cc1ccc(OCCCCO)cc1-c1ccnc(NC(=O)c2nnc(Cc3ccccc3)[nH]2)c1 [Example 151, 5-benzyl-N-(4-(5-(4-hydroxybutoxy)-2-methylphenyl)pyridin-2-yl)-4H-1,2,4-triazole-3-carboxamide]	≤ 100
Cc1ccc(OCCCC(C)(C)O)cc1-c1ccnc(NC(=O)c2nnc(Cc3ccc(F)c(F)c3F)[nH]2)c1 [Example 214, 5-(2,3,4-trifluorobenzyl)-N-(4-(5-((4-hydroxy-4-methylpentyl)oxy)-2-methylphenyl)pyridin-2-yl)-4H-1,2,4-triazole-3-carboxamide]	≤ 100
Cc1ccc(OCCCC(C)(C)O)cc1-c1cc(NC(=O)c2nnc(Cc3ccc(F)cc3F)[nH]2)ncn1 [Example 435, 5-(2,4-difluorobenzyl)-N-(6-(5-((4-hydroxy-4-methylpentyl)oxy)-2-methylphenyl)pyrimidin-4-yl)-4H-1,2,4-triazole-3-carboxamide]	≤ 100
Cc1ccc(OCCC2CCOCC2)cc1-c1cc(NC(=O)c2nnc(Cc3ccccc3F)[nH]2)ncc1Cl [Example 251, N-(5-chloro-4-(2-methyl-5-(2-(tetrahydro-2H-pyran-4-yl)ethoxy)phenyl)pyridin-2-yl)-5-(2-fluorobenzyl)-4H-1,2,4-triazole-3-carboxamide]	≤ 100
Cc1ccc(OCCC2CCOCC2)cc1-c1ccnc(NC(=O)c2nnc(Cc3ccccc3F)[nH]2)c1 [Example 226, 5-(2-fluorobenzyl)-N-(4-(2-methyl-5-(2-(tetrahydro-2H-pyran-4-yl)ethoxy)phenyl)pyridin-2-yl)-4H-1,2,4-triazole-3-carboxamide]	≤ 100

Compound	IC50 [nM]
CCC(O)(CC)CCCOc1ccc(C)c(-c2cc(NC(=O)c3nnc(CC4CCCCC4)[nH]3)ncc2C)c1 [Example 246, 5-(cyclohexylmethyl)-N-(4-(5-((4-ethyl-4-hydroxyhexyl)oxy)-2-methylphenyl)-5-methylpyridin-2-yl)-4H-1,2,4-triazole-3-carboxamide]	100 to 1000
Cc1ccc(OCCCC(C)(C)O)cc1-c1ccnc(NC(=O)c2nnc(CCc3ccccc3)[nH]2)c1 [Example 182, N-(4-(5-((4-hydroxy-4-methylpentyl)oxy)-2-methylphenyl)pyridin-2-yl)-5-phenethyl-4H-1,2,4-triazole-3-carboxamide]	100 to 1000
COCCCOc1ccc(C)c(-c2ccnc(NC(=O)c3nnc(C(C)c4ccccc4)[nH]3)c2)c1 (stereo not shown) [Example 142, N-(4-(5-(3-methoxypropoxy)-2-methylphenyl)pyridin-2-yl)-5-(1-phenylethyl)-4H-1,2,4-triazole-3-carboxamide]	100 to 1000
CCC(O)(CC)CCCOc1ccc(F)c(-c2cc(NC(=O)c3nnc(Cc4ccccc4F)[nH]3)ncc2Cl)c1 [Example 323, N-(5-chloro-4-(5-((4-ethyl-4-hydroxyhexyl)oxy)-2-fluorophenyl)pyridin-2-yl)-5-(2-fluorobenzyl)-4H-1,2,4-triazole-3-carboxamide]	100 to 1000
CCC(O)(CC)CCCOc1ccc(C)c(-c2cc(NC(=O)c3nnc(CC4CCCCC4)[nH]3)ncc2F)c1 [Example 243, 5-(cyclohexylmethyl)-N-(4-(5-((4-ethyl-4-hydroxyhexyl)oxy)-2-methylphenyl)-5-fluoropyridin-2-yl)-4H-1,2,4-triazole-3-carboxamide]	≤ 100
COCCCOc1ccc(C)c(-c2ccnc(NC(=O)c3nnc(CC4CCCCC4)[nH]3)c2)c1 [Example 145, 5-(cyclohexylmethyl)-N-(4-(5-(3-methoxypropoxy)-2-methylphenyl)pyridin-2-yl)-4H-1,2,4-triazole-3-carboxamide]	≤ 100
Cn1nc(C(F)(F)F)cc1-c1ccnc(NC(=O)c2nnc(Cc3ccccc3)[nH]2)c1 [Example 28, 5-benzyl-N-(4-(1-methyl-3-(trifluoromethyl)-1H-pyrazol-5-yl)pyridin-2-yl)-4H-1,2,4-triazole-3-carboxamide]	1000 to 10000
O=C(Nc1cc(-c2cc(OCCC3CCOCC3)ccc2F)c(Cl)cn1)c1nnc(Cc2ccccc2F)[nH]1 [Example 333, N-(5-chloro-4-(2-fluoro-5-(2-(tetrahydro-2H-pyran-4-yl)ethoxy)phenyl)pyridin-2-yl)-5-(2-fluorobenzyl)-4H-1,2,4-triazole-3-carboxamide]	100 to 1000
CCC(O)(CC)CCCOc1ccc(Cl)c(-c2ccnc(NC(=O)c3nnc(Cc4ccccc4F)[nH]3)c2)c1 [Example 360, N-(4-(2-chloro-5-((4-ethyl-4-hydroxyhexyl)oxy)phenyl)pyridin-2-yl)-5-(2-fluorobenzyl)-4H-1,2,4-triazole-3-carboxamide]	≤ 100
CC(C)OCCOc1ccc(C(F)(F)F)c(-c2ccnc(NC(=O)c3nnc(CC4CCCC4)[nH]3)c2)c1 [Example 289, 5-(cyclopentylmethyl)-N-(4-(5-(2-isopropoxyethoxy)-2-(trifluoromethyl)phenyl)pyridin-2-yl)-4H-1,2,4-triazole-3-carboxamide]	≤ 100
CC(C)(C)OCCOc1ccc(C(F)(F)F)c(-c2ccnc(NC(=O)c3nnc(CC4CCCC4)[nH]3)c2)c1 [Example 293, 5-(cyclopentylmethyl)-N-(4-(5-(2-(tert-butoxy)ethoxy)-2-(trifluoromethyl)phenyl)pyridin-2-yl)-4H-1,2,4-triazole-3-carboxamide]	≤ 100
Cc1ncccc1-c1ccnc(NC(=O)c2nnc(Cc3ccccc3)[nH]2)c1 [Example 20, 5-benzyl-N-(2-methyl-[3,4′-bipyridin]-2′-yl)-4H-1,2,4-triazole-3-carboxamide]	100 to 1000
Cc1ccc(C(=O)NCCC(C)(C)O)cc1-c1ccnc(NC(=O)c2nnc(Cc3ccccc3)[nH]2)c1 [Example 487, 5-benzyl-N-(4-(5-((3-hydroxyl-3-methylbutyl)carbamoyl)-2-methylphenyl)pyridin-2-yl)-4H-1,2,4-triazole-3-carboxamide]	100 to 1000
O=C(Nc1cc(C2CCCC2)ccn1)c1nnc(Cc2ccccc2)[nH]1 [Example 47, 5-benzyl-N-(4-cyclopentylpyridin-2-yl)-4H-1,2,4-triazole-3-carboxamide]	> 10000
COC(=O)C=Cc1ccc(C)c(-c2ccnc(NC(=O)c3nnc(Cc4ccccc4)[nH]3)c2)c1 [Example 480, Methyl 3-(3-(2-(5-benzyl-4H-1,2,4-triazol-3-carboxamido)pyridin-4-yl)-4-methylphenyl)acrylate]	≤ 100
